Results from US20250084096A1, “TERT-BUTYL (S)-2-(4-(PHENYL)-6H-THIENO[3, 2-F][1, 2, 4]TRIAZOLO[4, 3-A] [1,4]DIAZEPIN-6-YL) ACETATE DERIVATIVES AND RELATED COMPOUNDS AS BROMODOMAIN BRD4 INHIBITORS FOR TREATING CANCER” (Genentech, Inc., priority 2018, published 2025).

Experiments:
BRD4 [1] = molecular target: T1, BRD4 (Homo sapiens (Human), UniProt O60885); assay: BRD4 degradation assay in PC3-Steap1 cells; format: cell-based; details: 4 hours; for Dmax: complete loss = −100%, read-out: Sinf (maximum degradation, percent change in protein level); for DC50: immunofluorescence, read-out: Degradation of BRD4 Average EC50
Procedure: 2 μL of each sample from the serial dilution was transferred to 98 μL of assay media as an intermediate dilution. 5 μL of intermediate dilution was added to 45 μL of cell plate. Columns 1, 2, 23 and 24 were treated with only 0.2% w/v final concentration of DMSO for data normalization as “neutral controls”. After compound treatment, cell plates were stored in a 37° C. incubator for 4 hours.
Cell plate was incubated at room temperature for 20 minutes. Well contents were aspirated and washed with 100 μL/well PBS 3 times. 50 μL/well of PBS containing 0.5% w/v bovine serum albumen, 0.5% w/v Triton X-100 (Antibody Dilution Buffer) was added to each well. Samples were incubated for 30 minutes. Well contents were aspirated and washed 3 times with 100 μL/well of PBS. PBS was aspirated from the wells.
25 μL per well of BRD4 antibody diluted in buffer was added and incubated overnight at 4° C. On day-3 samples were washed 3 times with 100 μL/well of PBS. […] Samples were incubated for 2 hours at room temperature. Samples were washed 3 times with 100 μL PBS.
(§1) Quantitative fluorescence imaging of BRD4 was carried out using an Opera Phenix High-Content Screening System. […] Hoechst channel was used to identify nuclear region. […] Data analysis was carried out using Genedata Screener, with DMSO and no primary antibody control treated samples being used to define the 0% and 100% changes in BRD4. The dose-response log(inhibitor) vs. response was used to define the inflexion point of curve (IC50) and the plateau of the maximal effect. The Sit value reports degradation as percent change in protein level, so complete loss of the protein target is −100%. Sinf is the maximum degradation achieved, obtained by determining the bottom of a dose-response (where the S-shaped curve levels out).

BRD4 [2] = molecular target: T1, BRD4; assay: BRD4 degradation assay in EoL-1 cells; format: cell-based; details: for Dmax: EOL1, 4 hours, complete loss = −100%, read-out: Sinf (maximum degradation, percent change in protein level); for DC50: 4 hours, immunofluorescence, read-out: Degradation of BRD4 Average EC50
Procedure: 2 μL of each sample from the serial dilution was transferred to 98 μL of assay media as an intermediate dilution. 5 μL of each well of the intermediate dilution was added to 45 μL of cell plate. Columns 1, 2, 23 and 24 were treated with only 0.2% final concentration of DMSO for data normalization as “neutral controls”. After compound treatment, cell plates were stored in a 37° C. incubator for 4 hours.
The cell plate was incubated at room temperature for 20 minutes. Well contents were aspirated and washed with 100 μL/well PBS 3 times. 50 μL/well of PBS (pH7.5) containing 0.5% w/v bovine serum albumen, 0.5% w/v Triton X-100 (Block/Permeabilzation Buffer) was added to each well. Samples were incubated for 20 minutes. Well contents were aspirated and washed 3 times with 100 μL/well of PBS. PBS was aspirated from the well and 50 μL per well of EoL-1 Block Buffer (PBS containing 10% Normal Goat Serum (Abcam #ab7481)) was added to each well. Plates were incubated at room temperature for 30 minutes. Block buffer was decanted from the wells.
25 μL per well of BRD4 antibody diluted in buffer was added and incubated overnight at 4° C. On day-2 samples were washed 3 times with 100 μL/well of PBS. […] Samples were incubated for 2 hours at room temperature. Samples were washed 3 times with 100 μL PBS.
as §1, with “Sinf” for “Sit”

MYC expression = assay: Myc mRNA assay in MV-4-11 cells; format: cell-based; details: for Maximum Inhibition (%) (mean) of MYC expression: 4 hours, QuantiGene 2.0; for IC50: Homo sapiens, MV4-11, 4 hours, QuantiGene 2.0, read-out: Inhibition of MYC expression Average IC50
Procedure: Pharmacologic inhibition of MYC is achievable through targeting BET bromodomains through small molecule binder or degrader mechanisms.
Test compounds diluted in DMSO were transferred to the cell plates, keeping final DMSO concentration consistent at 0.1%, and incubated for 4 hours at 37° C. […] Luminescence was read using an EnVision plate reader (PerkinElmer) and IC50s generated in Genedata Screener using a 4-parameter non-linear regression fit.

BRD4_BD1 bromodomain = BRD4_BD1 bromodomain (Homo sapiens (Human), UniProt O60885); assay: BRD4 BD1 biochemical binding assay (TR-FRET); details: displacement of biotinylated ligand Compound C
Procedure: (§2) The following assay was used to measure the IC50 for the test compounds ability to bind to the BRD4_BD1 and BRD4_BD2 bromodomains.
(§3) DMSO was backfilled to a final volume of 30 nL as required. […] 1× Assay Buffer was dispensed (5 μL per well) into Minimum Signal control wells. 5 μL of Solution A-3× was dispensed into test wells and Maximum Signal control wells (containing DMSO instead of test compound). Samples were incubated 10 minutes at room temperature. 5 μL of Solution B-3x was dispensed into all wells. Samples were incubated incubate for 10 minutes at room temperature. 5 μL of Solution C-3x was dispensed into all wells. Samples were incubated 40 minutes at room temperature. Plates were read using an Envision (Perkin Elmer) with the following settings: Detection—LANCE Dual Laser 50/200. […] Percentage inhibition was calculated relative to the Minimum Signal control and Maximum Signal control wells. IC50 values were derived by four parameter curve fitting using the Robust method.

BRD4_BD2 bromodomain = BRD4_BD2 bromodomain (Homo sapiens (Human), UniProt O60885); assay: BRD4 BD2 biochemical binding assay (TR-FRET); details: displacement of biotinylated ligand Compound C
Procedure: as §2, §3

Compound | Dmax (BRD4 [1]) | Dmax (BRD4 [2]) | Maximum Inhibition (%) (mean) of MYC expression (MYC expression) | IC50 (MYC expression) | IC50 (BRD4_BD1 bromodomain) | IC50 (BRD4_BD2 bromodomain) | DC50 (BRD4 [1]) | DC50 (BRD4 [2])
Cc1sc2c(c1C)C(c1ccc(/C=C/CN)cc1)=N[C@@H](CC(=O)OC(C)(C)C)c1nnc(C)n1-2 [Compound 6a, tert-butyl (S,E)-2-(4-(4-(3-aminoprop-1-en-1-yl)phenyl)-2,3,9-trimethyl-6H-thieno[3,2-f][1,2,4]triazolo[4,3-a][1,4]diazepin-6-yl)acetate] | -73.1% | -77.9% | 88.4% | 0.002 µM |  |  |  | 
Cc1sc2c(c1C)C(c1ccc(C#CCO)cc1)=N[C@@H](CC(=O)OC(C)(C)C)c1nnc(C)n1-2 [Compound 7a, tert-butyl (S)-2-(4-(4-(3-hydroxyprop-1-yn-1-yl)phenyl)-2,3,9-trimethyl-6H-thieno[3,2-f][1,2,4]triazolo[4,3-a][1,4]diazepin-6-yl)acetate] |  |  | 72.9% | 0.0257 µM | 0.0178 µM | 0.0103 µM | > 20 µM | 
Cc1sc2c(c1C)C(c1ccc(C#CCN)cc1)=N[C@H](CC(=O)OC(C)(C)C)c1nnc(C)n1-2 [Compound 1b, tert-butyl (R)-2-(4-(4-(3-aminoprop-1-yn-1-yl)phenyl)-2,3,9-trimethyl-6H-thieno[3,2-f][1,2,4]triazolo[4,3-a][1,4]diazepin-6-yl)acetate] | -74.5% | -87% | 86.6% | 0.0675 µM | 0.199 µM | 0.272 µM | 0.0105 µM | 0.009 µM
Cc1sc2c(c1C)C(c1ccc(Cl)cc1)=N[C@@H](CC(=O)OC(C)(C)C)c1nnc(C)n1-2 [Compound A, tert-butyl (S)-2-(4-(4-chlorophenyl)-2,3,9-trimethyl-6H-thieno[3,2-f][1,2,4]triazolo[4,3-a][1,4]diazepin-6-yl)acetate, reference compound] |  |  | 76.3% | 0.0834 µM |  |  |  | 
Cc1sc2c(c1C)C(c1ccc(C#CCN)cc1)=N[C@@H](CC(=O)OC(C)(C)C)c1nnc(C)n1-2 [Compound 1a, tert-butyl (S)-2-(4-(4-(3-aminoprop-1-yn-1-yl)phenyl)-2,3,9-trimethyl-6H-thieno[3,2-f][1,2,4]triazolo[4,3-a][1,4]diazepin-6-yl)acetate] | -84.6% | -83.8% | 89.1% | 0.0029 µM | 0.0155 µM | 0.0123 µM | 0.0014 µM | 0.0013 µM
CNCC#Cc1ccc(C2=N[C@@H](CC(=O)OC(C)(C)C)c3nnc(C)n3-c3sc(C)c(C)c32)cc1 [Compound 2a, tert-butyl (S)-2-(2,3,9-trimethyl-4-(4-(3-(methylamino)prop-1-yn-1-yl)phenyl)-6H-thieno[3,2-f][1,2,4]triazolo[4,3-a][1,4]diazepin-6-yl)acetate] | -21.8% |  | 77.9% | 0.0111 µM | 0.0144 µM | 0.0171 µM | > 20 µM | > 20 µM
Cc1sc2c(c1C)C(c1ccc(C#CCNC(=N)N)cc1)=N[C@@H](CC(=O)OC(C)(C)C)c1nnc(C)n1-2 [Compound 5a, tert-butyl (S)-2-(4-(4-(3-guanidinoprop-1-yn-1-yl)phenyl)-2,3,9-trimethyl-6H-thieno[3,2-f][1,2,4]triazolo[4,3-a][1,4]diazepin-6-yl)acetate] | -86% |  | 87.6% | 0.124 µM | 0.0072 µM | 0.0085 µM | 0.101 µM | 
Cc1sc2c(c1C)C(c1ccc(C#CC(C)N)cc1)=N[C@@H](CC(=O)OC(C)(C)C)c1nnc(C)n1-2 (stereo partly drawn) [Compound 11a, tert-butyl 2-((6S)-4-(4-(3-aminobut-1-yn-1-yl)phenyl)-2,3,9-trimethyl-6H-thieno[3,2-f][1,2,4]triazolo[4,3-a][1,4]diazepin-6-yl)acetate] | -43.3% |  | 72.5% | 0.0207 µM | 0.0141 µM | 0.0106 µM | > 20 µM | 
Cc1sc2c(c1C)C(c1ccc(C#CCCN)cc1)=N[C@@H](CC(=O)OC(C)(C)C)c1nnc(C)n1-2 [Compound 4a, tert-butyl (S)-2-(4-(4-(4-aminobut-1-yn-1-yl)phenyl)-2,3,9-trimethyl-6H-thieno[3,2-f][1,2,4]triazolo[4,3-a][1,4]diazepin-6-yl)acetate] | -54.7% |  | 79.4% | 0.0198 µM | 0.013 µM | 0.0177 µM | 0.0034 µM | 
Cc1sc2c(c1C)C(c1ccc(C#CC(C)(C)N)cc1)=N[C@@H](CC(=O)OC(C)(C)C)c1nnc(C)n1-2 [Compound 12a, tert-butyl (S)-2-(4-(4-(3-amino-3-methylbut-1-yn-1-yl)phenyl)-2,3,9-trimethyl-6H-thieno[3,2-f][1,2,4]triazolo[4,3-a][1,4]diazepin-6-yl)acetate] |  |  | 73.3% | 0.0126 µM |  |  |  | 
Cc1sc2c(c1C)C(c1ccc(CCCN)cc1)=N[C@@H](CC(=O)OC(C)(C)C)c1nnc(C)n1-2 [Compound 9a, tert-butyl (S)-2-(4-(4-(3-aminopropyl)phenyl)-2,3,9-trimethyl-6H-thieno[3,2-f][1,2,4]triazolo[4,3-a][1,4]diazepin-6-yl)acetate] | -57.6% |  | 78.1% | 0.0277 µM |  |  |  | 
Cc1sc2c(c1C)C(c1ccc(C#CCNO)cc1)=N[C@@H](CC(=O)OC(C)(C)C)c1nnc(C)n1-2 [Compound 8a, tert-butyl (S)-2-(4-(4-(3-(hydroxyamino)prop-1-yn-1-yl)phenyl)-2,3,9-trimethyl-6H-thieno[3,2-f][1,2,4]triazolo[4,3-a][1,4]diazepin-6-yl)acetate] | -92.6% | -92.2% | 95.1% | 0.0072 µM |  |  |  | 
COC(=O)c1cc2c(cc1CS(C)(=O)=O)-c1cn(C)c(=O)c3[nH]cc(c13)CN2c1ncc(C#CCN)cc1F [Compound 15, methyl 4-(5-(3-aminoprop-1-yn-1-yl)-3-fluoropyridin-2-yl)-10-methyl-7-((methylsulfonyl)methyl)-11-oxo-3,4,10,11-tetrahydro-1H-1,4,10-triazadibenzo[cd,f]azulene-6-carboxylate] |  |  | 75.7% | 0.0072 µM |  |  | > 20 µM | > 20 µM
